Source: article PMC7996328, “Design, Synthesis, and Biological Evaluation of a Series of 5- and 7-Hydroxycoumarin Derivatives as 5-HT1A Serotonin Receptor Antagonists” (Pharmaceuticals, 2021)
Entries after “also recorded” stand apart in the source; their conditions may differ. Like-named read-outs stand apart in the source and are kept apart here.

Legend:
5-HT1A receptor [1] = conditions: previously synthesized coumarins derivatives, Figure 1; read-out: Ki, 5-HT1A receptor affinity; cited from earlier work
5-HT1A receptor [2] = molecular target: T1, 5-HT1A receptor (Rattus norvegicus, UniProt P19327); test: G-protein enhancing (agonist) effect at the 5-HT1A receptor; type: biochemical; conditions: for functional character at the 5-HT1A receptor: in words
T1 construct: Hippocampal homogenates (15 μg/mL) were added to each tube as the 5-HT1A receptor source; from tissue; host or cells: rat hippocampus (male Sprague-Dawley), membrane homogenate
T1 sequence (P19327 1-422): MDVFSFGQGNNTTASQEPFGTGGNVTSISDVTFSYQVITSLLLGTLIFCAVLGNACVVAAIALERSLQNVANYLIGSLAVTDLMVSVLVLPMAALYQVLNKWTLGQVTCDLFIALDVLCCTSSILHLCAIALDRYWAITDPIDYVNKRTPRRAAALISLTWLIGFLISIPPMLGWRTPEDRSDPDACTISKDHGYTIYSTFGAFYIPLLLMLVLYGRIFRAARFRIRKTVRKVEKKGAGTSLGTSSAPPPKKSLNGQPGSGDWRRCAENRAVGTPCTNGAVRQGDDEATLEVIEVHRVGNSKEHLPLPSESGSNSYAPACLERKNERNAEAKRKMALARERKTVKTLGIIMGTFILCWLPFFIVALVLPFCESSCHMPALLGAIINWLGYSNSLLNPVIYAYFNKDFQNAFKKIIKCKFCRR

5-HT2A receptor = molecular target: T2, 5-HT2A receptor (Rattus norvegicus, UniProt P14842); test: 5-HT2A competition binding assay, [3H]ketanserin, frontal cortex homogenates; conditions: [3H]ketanserin 1 nM
T2 construct: from tissue; host or cells: rat frontal cortex (male SD), membrane homogenate
T2 sequence (P14842 whole entry): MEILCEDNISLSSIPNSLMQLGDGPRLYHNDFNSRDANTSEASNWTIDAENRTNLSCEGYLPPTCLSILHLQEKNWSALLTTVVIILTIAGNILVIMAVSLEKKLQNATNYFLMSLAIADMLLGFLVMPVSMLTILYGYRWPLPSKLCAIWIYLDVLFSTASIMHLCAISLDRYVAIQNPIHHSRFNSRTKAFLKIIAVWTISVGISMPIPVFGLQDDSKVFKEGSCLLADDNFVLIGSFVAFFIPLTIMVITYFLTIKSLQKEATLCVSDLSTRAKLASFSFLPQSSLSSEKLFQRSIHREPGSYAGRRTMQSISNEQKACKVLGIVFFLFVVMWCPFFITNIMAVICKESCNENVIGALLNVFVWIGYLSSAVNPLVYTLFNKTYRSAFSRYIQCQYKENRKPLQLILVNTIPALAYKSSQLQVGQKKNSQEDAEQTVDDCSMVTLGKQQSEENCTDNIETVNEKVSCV

[3] = Solubility under experimental conditions of the 5-HT1A assay; type: physicochemical; conditions: reason for not testing in 5-HT1A assay
Description: Compounds were dissolved in 9.5% DMSO and 0.5% Kolliphor® EL (Sigma Aldrich, Taufkirchen, Germany). Serial dilutions of the compounds tested (10^−10–10^−5 M) were incubated in triplicate with 0.8 nM [^35S]GTPγS in assay buffer (50 mM Tris-HCl, pH = 7.4, 1 mM EGTA, 3 mM MgCl2, 100 mM NaCl, 30 µM GDP) and 8-OH-DPAT (final concentration 1.4 × 10^−7 M) in the final assay volume of 250 µL. Hippocampal homogenates (15 μg/mL) were added to each tube as the 5-HT1A receptor source. The final DMSO and Kolliphor® EL concentrations were 0.95% and 0.05%, respectively. Non-specific binding was determined with 10 µM of unlabeled GTPγS. The reaction mixture was incubated for 90 min at 37 °C in a volume of 250 µL. Next, 96-well Unifilter® Plates (Perkin Elmer, Waltham, MA, USA) were presoaked for 1 h with 50 mM Tris-HCl (pH = 7.4) before harvesting. The reaction was terminated by vacuum filtration onto filter plates with the FilterMate Harvester® (Perkin Elmer, Waltham, MA, USA). The samples were then rapidly washed with 2 mL of 50 mM Tris-HCl (pH = 7.4) buffer. Filter plates were dried for 2 h at 50 °C. After drying, 45 µL of EcoScint-20 scintillant (Perkin Elmer) was added to every well. Radioactivity was counted in a Trilux MicroBeta^2 counter (Perkin Elmer). Data were analyzed with GraphPad Prism 5.0 software (GraphPad Software, San Diego, CA, USA, www.graphpad.com). Curves were fitted with a one-site non-linear regression model. Efficacy (Emax) and half maximal inhibitory concentration (IC50) were calculated from the Cheng–Prusoff equation and expressed as means ± SEM.

5-HT1A receptor [4] = molecular target: T1, 5-HT1A receptor; test: Antagonist activity for the 5-HT1A receptor, [35S]GTPγS assay in hippocampal homogenates; type: biochemical; conditions: 8-OH-DPAT 1.4 × 10^−7 M, mean ± SEM; for EC50 / EC50 (nM ± SEM): antagonistic activity
[5] = G-protein enhancing effect, 5-HT1A
[6] = G-protein enhancing effect, 5-HT1A, read-out: EC50 (nM ± SEM)
[7] = read-out: Ki (nM ± SEM) (converted)

SMILES | Ki (5-HT2A receptor; [7]) [nM] | melting point [°C] | IC50 (5-HT1A receptor [4]) [nM] | EC50 (5-HT1A receptor [4]) [nM] | other results
Cc1cc(OCCCN2CCN(c3ccccc3F)CC2)c2c(C)cc(=O)oc2c1 [IIa] | – | – | – | – | Ki (5-HT1A receptor [1]): 1.7 ± 0.005 nM
Cc1cc(OCCN2CCN(c3cccc(Br)c3)CC2)c2c(C)cc(=O)oc2c1 [Compound 2g, 5-(4-(4-(3-bromophenyl)piperazin-1-yl)ethoxy)-4,7-dimethyl-2H-chromen-2-one] | 3540 | 126 to 127 | – | – | Emax (5-HT1A receptor [2]; [5]): 118 ± 6.5%; Emax (% ± SEM) (5-HT1A receptor [2]; [5]): 113 ± 6.5%; EC50 (5-HT1A receptor [2]; [6]): 5080 ± 2640 nM; EC50 (5-HT1A receptor [2]; G-protein enhancing effect, 5-HT1A, read-out: pEC50 (converted)): 6310 nM; functional character at the 5-HT1A receptor (5-HT1A receptor [2]): weak partial agonists
CC(=O)c1c(C)cc2oc(=O)cc(C)c2c1OCCCCCN1CCN(c2ccccc2C#N)CC1 [Compound 3j, 6-acetyl-5-(5-(4-(2-cyanophenyl)piperazin-1-yl)pentyloxy)-4,7-dimethyl-2H-chromen-2-one] | – | 116 to 118 | – | – | solubility under experimental conditions [3]: very poor solubility
Cc1ccc(C)c(N2CCN(CCCCCOc3cc(C)cc4oc(=O)cc(C)c34)CC2)c1 [Compound 1d, 5-(5-(4-(2,5-dimethylphenyl)piperazin-1-yl)pentyloxy)-4,7-dimethyl-2H-chromen-2-one] | – | 132 to 134 | – | – | solubility under experimental conditions [3]: very poor solubility
Cc1cc(OCCCCN2CCN(c3ccccc3C#N)CC2)c2c(C)cc(=O)oc2c1 [IIf] | – | – | – | – | Ki (5-HT1A receptor [1]): 3 ± 0.2 nM
Cc1cc(OCCCCN2CCN(c3ccccc3F)CC2)c2c(C)cc(=O)oc2c1 [IIb] | – | – | – | – | Ki (5-HT1A receptor [1]): 3 ± 0.1 nM
Cc1cc(OCCCCCN2CCN(c3cccc(Br)c3)CC2)c2c(C)cc(=O)oc2c1 [Compound 1g, 5-(5-(4-(3-bromophenyl)piperazin-1-yl)pentyloxy)-4,7-dimethyl-2H-chromen-2-one] | – | 107 to 109 | – | – | solubility under experimental conditions [3]: very poor solubility
Cc1cc(OCCCN2CCN(c3ccccc3C#N)CC2)c2c(C)cc(=O)oc2c1 [IIe] | – | – | – | – | Ki (5-HT1A receptor [1]): 1.5 ± 0.2 nM
Cc1cc(OCCCN2CCN(c3cccc(Cl)c3Cl)CC2)c2c(C)cc(=O)oc2c1 [IIc] | – | – | – | – | Ki (5-HT1A receptor [1]): 8 ± 0.04 nM
CC(=O)c1c(OCCN2CCN(c3ccccc3Br)CC2)ccc2c(C)cc(=O)oc12 [Compound 6f, 8-acetyl-7-(2-[4-(2-bromophenyl)piperazin-1-yl]ethoxy)-4-methylchromen-2-one] | 1500 ± 268 | 145 to 147 | 50100 | 46800 | –
COc1cccc(N2CCN(CCOc3cc(C)cc4oc(=O)cc(C)c34)CC2)c1 [Compound 2c, 5-(2-(4-(3-methoxyphenyl)piperazin-1-yl)ethoxy)-4,7-dimethyl-2H-chromen-2-one] | 458 ± 109 | 124 to 125 | 20000 | 19100 | Ki (5-HT2A receptor; read-out: pKi (M ± SEM) (converted)): 468 nM
Cc1cc(OCCCCN2CCN(c3cccc(Cl)c3Cl)CC2)c2c(C)cc(=O)oc2c1 [IId] | – | – | – | – | Ki (5-HT1A receptor [1]): 4 ± 0.8 nM
CC(=O)c1c(OCCN2CCN(c3ccccc3C#N)CC2)ccc2c(C)cc(=O)oc12 [Compound 6j, 8-acetyl-7-(2-[4-(2-cyanophenyl)piperazin-1-yl]ethoxy)-4-methylchromen-2-one] | 496 ± 121 | 155 to 157 | 7940 | 7800 ± 1880 | –
CC(=O)c1c(C)cc2oc(=O)cc(C)c2c1OCCCCCN1CCN(c2ccccc2Br)CC1 [Compound 3f, 6-acetyl-5-(5-(4-(2-bromophenyl)piperazin-1-yl)pentyloxy)-4,7-dimethyl-2H-chromen-2-one] | 354 ± 110 | 108 to 109 | 692 | 689 ± 138 | –
Cc1cc(OCCN2CCN(c3ccccc3F)CC2)c2c(C)cc(=O)oc2c1 [Compound 2b, 5-(2-(4-(2-fluorophenyl)piperazin-1-yl)ethoxy)-4,7-dimethyl-2H-chromen-2-one] | 2130 ± 662 | 121 to 123 | – | – | pIC50 ± SEM (5-HT1A receptor [4]): no activity; EC50 (nM ± SEM) (5-HT1A receptor [4]): did not show any activity; also recorded: no activity
COc1ccccc1N1CCN(CCOc2cc(C)cc3oc(=O)cc(C)c23)CC1 [Compound 2a, 5-(2-(4-(2-methoxyphenyl)piperazin-1-yl)ethoxy)-4,7-dimethyl-2H-chromen-2-one] | 1710 ± 582 | 146 to 148 | 2000 | 1880 ± 427 | –
Cc1cc(OCCN2CCN(c3ccccc3C#N)CC2)c2c(C)cc(=O)oc2c1 [Compound 2j, 5-(2-(4-(2-cyanophenyl)piperazin-1-yl)ethoxy)-4,7-dimethyl-2H-chromen-2-one] | 5620 ± 1850 | 127 to 129 | – | – | pIC50 ± SEM (5-HT1A receptor [4]): no activity; EC50 (nM ± SEM) (5-HT1A receptor [4]): did not show any activity; also recorded: no activity
CC(=O)c1c(OCCN2CCN(c3cc(C)cc(C)c3)CC2)ccc2c(C)cc(=O)oc12 [Compound 6h, 8-acetyl-7-(2-[4-(3,5-dimethylphenyl)piperazin-1-yl]ethoxy)-4-methylchromen-2-one] | 479 ± 96 | 120 to 121 | 50100 | 47800 | –
COc1cccc(N2CCN(CCOc3c(C(C)=O)c(C)cc4oc(=O)cc(C)c34)CC2)c1 [Compound 4c, 6-acetyl-5-(2-(4-(3-methoxyphenyl)piperazin-1-yl)ethoxy)-4,7-dimethyl-2H-chromen-2-one] | 513 ± 137 | 75 to 76 | 5010 | 5010 ± 117 | –
Cc1cc(OCCN2CCN(c3cccc(F)c3)CC2)c2c(C)cc(=O)oc2c1 [Compound 2e, 5-(2-(4-(3-fluorophenyl)piperazin-1-yl)ethoxy)-4,7-dimethyl-2H-chromen-2-one] | – | 120 to 122 | – | – | Emax (5-HT1A receptor [2]; [5]): 118 ± 1.48%; EC50 (5-HT1A receptor [2]; [6]): 179 ± 39.3 nM; functional character at the 5-HT1A receptor (5-HT1A receptor [2]): weak partial agonists
CC(=O)c1c(C)cc2oc(=O)cc(C)c2c1OCCN1CCN(c2cccc(Cl)c2Cl)CC1 [Compound 4i, 6-acetyl-5-(2-(4-(2,3-dichlorophenyl)piperazin-1-yl)ethoxy)-4,7-dimethyl-2H-chromen-2-one] | 1640 ± 344 | 162 to 163 | 3160 | 3100 ± 148 | –
Cc1cc(OCCCCCN2CCN(c3cccc(F)c3)CC2)c2c(C)cc(=O)oc2c1 [Compound 1e, 5-(5-(4-(3-fluorophenyl)piperazin-1-yl)pentyloxy)-4,7-dimethyl-2H-chromen-2-one] | 2350 ± 673 | 101 to 102 | 25100 | 24300 | –
Cc1cc(OCCCCCN2CCN(c3ccccc3C#N)CC2)c2c(C)cc(=O)oc2c1 [Compound 1j, 5-(5-(4-(2-cyanophenyl)piperazin-1-yl)pentyloxy)-4,7-dimethyl-2H-chromen-2-one] | 79 ± 18 | 148 to 149 | 79400 | 74700 | –
Cc1cc(OCCCCCN2CCN(c3cccc(Cl)c3Cl)CC2)c2c(C)cc(=O)oc2c1 [Compound 1i, 5-(5-(4-(2,3-dichlorophenyl)piperazin-1-yl)pentyloxy)-4,7-dimethyl-2H-chromen-2-one] | 1450 ± 653 | 162 to 163 | 15800 | 13700 | –
COc1cccc(N2CCN(CCCCCOc3c(C(C)=O)c(C)cc4oc(=O)cc(C)c34)CC2)c1 [Compound 3c, 6-acetyl-5-(5-(4-(3-methoxyphenyl)piperazin-1-yl)pentyloxy)-4,7-dimethyl-2H-chromen-2-one] | 492 ± 99.7 | 86 to 88 | 1580 | 1550 ± 190 | –
